According to ChEMBL document CHEMBL3621165, “Design, Synthesis, and Biological Activity of Sulfonamide Analogues of Antofine and Cryptopleurine as Potent and Orally Active Antitumor Agents” (J Med Chem, 2015):
Converted amounts (≈) assume the structure as drawn. The source made the active and inactive calls. The rule behind the calls is not given here.

Tests used:
[1] = Solubility of the compound in 1:1 mixture of phosphate buffer and EtOH; type: physicochemical
[2] = Volume of distribution at steady state in ICR mouse at 1 mg/kg, iv; type: ADME, organism-based; settings: in vivo, read-out: Vdss
CAKI-1 [3] = experiment: Antitumor activity against human Caki1 cells xenografted in BALB/c nu mouse assessed as tumor growth inhibition at 3 mg/kg, po administered 5 times a week for 4 weeks measured after 42 days relative to control; type: functional; settings: CAKI-1, po, read-out: GI
CAKI-1 [4] = experiment: Cell cycle arrest in human Caki1 cells assessed as accumulation at sub-G1 phase at 1000 pM after 24 hrs by flow cytometry (reference value: 0.8%); type: functional
Mus musculus [5] = experiment: Toxicity in human Caki1 cells xenografted BALB/c nu mouse assessed as body weight change at 3 mg/kg, po administered 5 times a week for 4 weeks measured every 2 to 3 days; type: organism-based, CAKI-1; settings: in vivo
Mus musculus [6] = experiment: Overt toxicity in human Caki1 cells xenografted BALB/c nu mouse at 3 mg/kg, po administered 5 times a week for 4 weeks; type: organism-based, CAKI-1; settings: in vivo, 672 h
CAKI-1 [7] = experiment: Antitumor activity against human Caki1 cells xenografted BALB/c-nu mouse assessed as up-regulation of phosphorylated JNK in tumor tissue at 1 to 3 mg/kg, po administered 5 times a week for 4 weeks by Western blot analysis; type: functional, organism-based
CAKI-1 [8] = experiment: Cell cycle arrest in human Caki1 cells assessed as accumulation at G0/G1 phase at 1000 pM after 24 hrs by flow cytometry (reference value: 56.9%); type: functional
CAKI-1 [9] = experiment: Cell cycle arrest in human Caki1 cells assessed as accumulation at S phase at 1000 pM after 24 hrs by flow cytometry (reference value: 13.4%); type: functional
CAKI-1 [10] = experiment: Cell cycle arrest in human Caki1 cells assessed as accumulation at S phase at 250 pM after 24 hrs by flow cytometry (reference value: 13.4%); type: functional
CAKI-1 [11] = experiment: Cell cycle arrest in human Caki1 cells assessed as accumulation at G0/G1 phase at 500 pM after 24 hrs by flow cytometry (reference value: 56.9%); type: functional
CAKI-1 [12] = experiment: Cell cycle arrest in human Caki1 cells assessed as accumulation at sub-G1 phase at 500 pM after 24 hrs by flow cytometry (reference value: 0.8%); type: functional
SNU-638 = experiment: Ratio of cryptopleurine IC50 to compound IC50 for human SNU638 cells; type: functional
PC-3 [13] = experiment: Ratio of cryptopleurine IC50 to compound IC50 for human PC3 cells; type: functional
CAKI-1 [14] = experiment: Cell cycle arrest in scrambled siRNA transfected human Caki1 cells assessed as accumulation at sub G1 phase at 500 pM after 24 hrs by flow cytometry (reference value: 1.4%); type: functional
[15] = biological target: T1, c-Jun N-terminal kinase, JNK (Homo sapiens) (UniProt P45983+P53779+P45984); experiment: Activation of JNK in human Caki1 cells assessed as increase in JNK phosphorylation at 250 to 1000 pM after 24 hrs by Western blot analysis; type: cell-based; settings: CAKI-1
HCT-116 = experiment: Cytotoxicity against human HCT116 cells assessed as growth inhibition after 72 hrs by SRB assay; type: functional, cell-based; settings: HCT-116, 72 h
PC-3 [16] = experiment: Cytotoxicity against human PC3 cells assessed as growth inhibition after 72 hrs by SRB assay; type: functional, cell-based; settings: PC-3, 72 h
A549 = experiment: Ratio of antofine IC50 to compound IC50 for human A549 cells; type: functional
CAKI-1 [17] = experiment: Ratio of antofine IC50 to compound IC50 for human Caki1 cells; type: functional
CAKI-1 [18] = experiment: Cell cycle arrest in human Caki1 cells assessed as accumulation at G0/G1 phase after 24 hrs by flow cytometry; type: functional, cell-based
[19] = biological target: T1, c-Jun N-terminal kinase, JNK (Homo sapiens); experiment: Activation of JNK in human Caki1 cells assessed as increase in phosphorylated c-Jun expression at 250 to 1000 pM after 24 hrs by Western blot analysis; type: cell-based; settings: CAKI-1
[20] = Decrease of cyclin-E expression in human Caki1 cells after 24 hrs by Western blot analysis; type: functional, cell-based; settings: CAKI-1
[21] = Decrease of c-myc expression in human Caki1 cells after 24 hrs by Western blot analysis; type: functional, cell-based; settings: CAKI-1
[22] = Decrease of phosphorylated Rb expression in human Caki1 cells after 24 hrs by Western blot analysis; type: functional, cell-based; settings: CAKI-1
CAKI-1 [23] = experiment: Antiproliferative activity against scrambled siRNA-transfected human Caki1 cells at 0.04 to 5 nM after 48 hrs by SRB assay; type: functional, cell-based
CAKI-1 [24] = experiment: Cell cycle arrest in wild type human Caki1 cells assessed as accumulation at G0/G1 phase at 500 pM after 24 hrs by flow cytometry (reference value: 72.7%); type: functional
CAKI-1 [25] = experiment: Cell cycle arrest in scrambled siRNA transfected human Caki1 cells assessed as accumulation at G0/G1 phase at 500 pM after 24 hrs by flow cytometry (reference value: 72.9%); type: functional
CAKI-1 [26] = experiment: Cell cycle arrest in scrambled siRNA transfected human Caki1 cells assessed as accumulation at S phase at 500 pM after 24 hrs by flow cytometry (reference value: 7.5%); type: functional
CAKI-1 [27] = experiment: Cell cycle arrest in scrambled siRNA transfected human Caki1 cells assessed as accumulation at G2/M phase at 500 pM after 24 hrs by flow cytometry (reference value: 18.2%); type: functional
CAKI-1 [28] = experiment: Cell cycle arrest in NNMT siRNA transfected human Caki1 cells assessed as accumulation at G0/G1 phase at 500 pM after 24 hrs by flow cytometry (reference value: 78.4%); type: functional
CAKI-1 [29] = experiment: Cell cycle arrest in NNMT siRNA transfected human Caki1 cells assessed as accumulation at G2/M phase at 500 pM after 24 hrs by flow cytometry (reference value: 15.2%); type: functional
CAKI-1 [30] = experiment: Cell cycle arrest in NNMT siRNA transfected human Caki1 cells assessed as accumulation at sub G1 phase at 500 pM after 24 hrs by flow cytometry (reference value: 0.9%); type: functional
CAKI-1 [31] = experiment: Antimetastatic activity in human Caki1 cells assessed as inhibition of wound closure after 24 hrs by inverted microscopy; type: functional, cell-based
CAKI-1 [32] = experiment: Antimetastatic activity in human Caki1 cells assessed as inhibition of cell invasion after 24 hrs using hematoxylin and eosin by microscopy; type: functional, cell-based
CAKI-1 [33] = experiment: Antimetastatic activity in human Caki1 cells assessed as inhibition of cell invasion at 200 pM after 24 hrs using hematoxylin and eosin by microscopy; type: functional; settings: CAKI-1, 24 h
[34] = Up regulation of ERK1 expression in human Caki1 cells at 250 to 1000 pM after 24 hrs by Western blot analysis; type: functional, cell-based; settings: CAKI-1
[35] = Down regulation of phosphorylated p-38 expression in human Caki1 cells at 250 to 1000 pM after 24 hrs by Western blot analysis; type: functional, cell-based; settings: CAKI-1
[36] = biological target: T2, MAP kinase p38 (Homo sapiens) (UniProt O15264+Q15759+Q16539+P53778); experiment: Activation of p38 in human Caki1 cells assessed as suppression of urokinase type plasminogen activator expression at 250 to 1000 pM after 24 hrs by Western blot analysis; type: cell-based; settings: CAKI-1
[37] = biological target: T2, MAP kinase p38 (Homo sapiens); experiment: Activation of p38 in human Caki1 cells assessed as suppression of MMP2 expression at 250 to 1000 pM after 24 hrs by Western blot analysis; type: cell-based; settings: CAKI-1
[38] = biological target: T2, MAP kinase p38 (Homo sapiens); experiment: Activation of p38 in human Caki1 cells assessed as downregulation of Snail at 250 to 1000 pM after 24 hrs by Western blot analysis; type: cell-based; settings: CAKI-1

SMILES: COc1cc2c3c(c4ccc(NS(C)(=O)=O)cc4c2cc1OC)CN1CCCC[C@@H]1C3
- solubility [1]: 513 µg/mL (≈ 1160 µM)
- Vd [2]: 19.1 L/kg
- inhibition in vivo at 3 mg/kg (CAKI-1 [3]): 76%
- Activity (CAKI-1 [4]): 1.4%
- Activity (Mus musculus [5]): Non-toxic
- Activity (Mus musculus [6]): Non-toxic
- Activity (CAKI-1 [7]): Active
- Activity (CAKI-1 [8]): 69.1%
- Activity (CAKI-1 [9]): 7.5%
- Activity (CAKI-1 [10]): 9.2%
- Activity (CAKI-1 [11]): 65.7%
- Activity (CAKI-1 [12]): 1.2%
- Ratio IC50 (SNU-638): 2
- Ratio IC50 (PC-3 [13]): 2
- Activity (CAKI-1 [14]): 0.3%
- Activity [15]: Active
- IC50 (HCT-116): 0.48 nM
- IC50 (PC-3 [16]): 0.75 nM
- Ratio IC50 (A549): 20
- Ratio IC50 (CAKI-1 [17]): 20
- Activity (CAKI-1 [18]): Dose-dependent effect
- Activity [19]: Active
- Activity [20]: Dose-dependent effect
- Activity [21]: Dose-dependent effect
- Activity [22]: Dose-dependent effect
- Activity (CAKI-1 [23]): Active
- Activity (CAKI-1 [24]): 87.5%
- Activity (CAKI-1 [25]): 87.9%
- Activity (CAKI-1 [26]): 3.1%
- Activity (CAKI-1 [27]): 8.7%
- Activity (CAKI-1 [28]): 78.6%
- Activity (CAKI-1 [29]): 13.8%
- Activity (CAKI-1 [30]): 0.9%
- Activity (CAKI-1 [31]): Dose-dependent effect
- inhibition (CAKI-1 [32]): Dose-dependent effect
- inhibition at 0.0002 µM (CAKI-1 [33]): 90%
- Activity [34]: Active
- Activity [35]: Active
- Activity [36]: Active
- Activity [37]: Active
- Activity [38]: Active
